Bridge positions count the residues as written; N and C are the ends. Peptide text beside a SMILES is read from it.
Columns and labels:
[1] = Enzymatic stability against carboxypeptidase A; assay type: in vitro ADME; conditions: isolated enzyme carboxypeptidase; exopeptidase carboxypeptidase A (method prints 100 nM carboxypeptidase B), up to 6 hr, 37 °C, 50 mM Tris-HCl pH 7.5, 100 mM NaCl; 28 µg peptide; UPLC peak area with MALDI-TOF MS; read-out: peptide remaining after carboxypeptidase A
[2] = test system: erythrocytes obtained from human type O blood; test: Hemolytic effect on erythrocytes; assay type: cell-based; conditions: human type O erythrocytes in PBS; concentrations up to 100 µM; 4 hr, 37 °C; read at 415 nm
Description: Erythrocytes were isolated from fresh blood type O+ by centrifugation for 15 min at 10000 rpm. The erythrocytes were diluted with phosphate-buffered saline, mixed with various concentrations of β-ginkgotide β-gB1 (1–100 µM) and incubated for 4 hr at 37 °C. The hemolytic effect was examined using a microplate reader set at 415 nm^3.

BHK cell line = test: In vitro cytotoxicity (MTT), BHK cells; assay type: cell-based; conditions: concentrations up to 100 µM, 24 hr
[3] = Enzymatic stability against trypsin; assay type: in vitro ADME; conditions: isolated enzyme trypsin; endopeptidase trypsin, up to 6 hr, 37 °C, 100 mM ammonium bicarbonate pH 7.8; 28 µg peptide; quenched with 1 M HCl; UPLC peak area with MALDI-TOF MS; read-out: peptide remaining after trypsin
Description: The β-ginkgotide β-gB1 (28 µg) was added to 100 µL of 100 mM ammonium bicarbonate buffer (pH 7.8) and incubated in a water bath at 37 °C for 6 hr. At each time-point (0 and 6 hr), 20 µL of the treated sample was aliquoted and quenched by adding 5 µL of 1 M hydrochloric acid.
The reaction mixture was analyzed by a Nexera UHPLC system (Shimadzu, Kyoto, Japan) equipped with an Aeris peptide XB-C18 column (Phenomenex, CA, USA; particle size 3.6 µm, 100 × 4.6 mm). The eluents were monitored with MALDI-TOF MS, and the area under the peak before and after the treatment was determined to evaluate stability.
Figure S5. Stability assays of β-gB1. (A) Thermal stability of β-gB1 incubated at 100 °C for 120 minutes. (B) Acidic condition stability of […] incubated in 0.2 M HCl (pH 2.0) at 37 °C for 120 minutes. […] The molecular weight of the peak was determined by MALDI-TOF MS.

Vero cell line = test: In vitro cytotoxicity (MTT), Vero cells; assay type: cell-based; conditions: concentrations up to 100 µM, 24 hr

**Q.** With `CC[C@H](C)[C@@H]1NC(=O)[C@@H]2CSSC[C@H](NC(=O)CNC(=O)[C@@H](NC(=O)[C@H](CCC(=O)O)NC(=O)[C@@H](N)Cc3ccc(O)cc3)[C@@H](C)O)C(=O)N[C@@H](CCCCN)C(=O)N[C@@H](CCCNC(=N)N)C(=O)N[C@H]3CSSC[C@@H](C(=O)O)NC(=O)[C@H](CSSC[C@H](NC3=O)C(=O)N[C@@H](Cc3ccc(O)cc3)C(=O)N[C@@H](CC(C)C)C(=O)N[C@@H](CC(=O)O)C(=O)N[C@@H](CCC(=O)O)C(=O)N[C@@H](Cc3ccc(O)cc3)C(=O)NCC(=O)N2)NC(=O)[C@H](CCCNC(=N)N)NC1=O` [β-gB1] (H-YETGCKRCCYLDEYGCIRCC-OH; disulfide 5-16, 8-20, 9-19) as the molecule, how does the remaining at 6 h [1] read?
**A.** > 90%

**Q.** And the hemolytic effect [2]?
**A.** no hemolytic effect

**Q.** What about the “cytotoxic effect, BHK cells” value (BHK cell line) of the same molecule?
**A.** nontoxic

**Q.** And the remaining at 6 h [3]?
**A.** > 90%

**Q.** What about the “cytotoxic effect, Vero cells” value (Vero cell line) of the same molecule?
**A.** nontoxic
